BindingDB's records for doi:10.1124/jpet.104.077321 (I.G.B.M.C., 2005)
Where a SMILES comes first, the peptide text is derived from it.

Target: Delta-type opioid receptor (Homo sapiens, UniProt P41143)
Sequence (P41143 whole entry): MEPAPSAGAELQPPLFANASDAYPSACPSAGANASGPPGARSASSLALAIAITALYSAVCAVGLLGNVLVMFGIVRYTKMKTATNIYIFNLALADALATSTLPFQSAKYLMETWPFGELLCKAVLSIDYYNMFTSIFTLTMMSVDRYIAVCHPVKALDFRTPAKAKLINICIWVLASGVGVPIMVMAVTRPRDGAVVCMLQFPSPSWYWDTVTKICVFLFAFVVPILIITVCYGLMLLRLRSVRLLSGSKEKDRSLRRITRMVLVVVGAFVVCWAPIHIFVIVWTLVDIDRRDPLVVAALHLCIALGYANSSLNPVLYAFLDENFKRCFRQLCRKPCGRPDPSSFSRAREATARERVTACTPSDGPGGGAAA

In order of rising Ki:
1. CCO[C@@]12Cc3c([nH]c4ccccc34)C3Oc4c(O)ccc5c4C31CCN(CC1CC1)C2C5 (stereo partly specified) [HS464]  0.11 nM
2. CCO[C@@]12Cc3c(oc4ccccc34)C3Oc4c(O)ccc5c4C31CCN(CC1CC1)C2C5 (stereo partly specified) [HS510A]  0.12 nM
3. COc1c(O)cc2c3c1O[C@@]1(C)c4oc5ccccc5c4C[C@@]4(O)C(C2)N(CC2CC2)CCC314 (stereo partly specified) [NSC_0]  0.22 nM
4. CCO[C@@]12Cc3c([nH]c4ccccc34)[C@]3(C)Oc4c(O)ccc5c4C31CCN(CC1CC1)C2C5 (stereo partly specified) [HS378]  0.4 nM
5. C=CCN1CCC23c4c5ccc(O)c4OC2c2c(c4ccccc4n2C)C[C@@]3(OC)C1C5 (stereo partly specified) [HS531]  0.42 nM
6. C=CCN1CCC23c4c5ccc(O)c4OC2c2[nH]c4ccccc4c2C[C@@]3(OCC)C1C5 (stereo partly specified) [HS414]  2.1 nM
7. Cc1cc(O)cc(C)c1C[C@@H](C(=O)N1Cc2ccccc2C[C@H]1C(N)=O)N(C)C  2.5 nM
8. N[C@@H](Cc1ccc(O)cc1)C(=O)N1Cc2ccccc2C[C@H]1C(=O)N[C@@H](Cc1ccccc1)C(=O)N[C@@H](Cc1ccccc1)C(=O)O [TIPP] (HELM PEPTIDE1{Y.[Tic].F.F}$$$$V2.0)  2.9 nM
9. Cc1cc(O)cc(C)c1C[C@H](N)C(=O)N1Cc2ccccc2C[C@H]1C(N)=O [H-Dmt-Tic-NH2] (HELM PEPTIDE1{[Cc1cc(O)cc(C)c1C[C@H](N)C(=O)[*:2]].[Tic].[am]}$$$$V2.0)  9.41 nM
10. Cc1cc(O)cc(C)c1C[C@H](N)C(=O)N1Cc2ccccc2C[C@H]1C(=O)O [(S)-2-((S)-2-amino-3-(4-hydroxy-2,6-dimethylphenyl)propanoyl)-1,2,3,4-tetrahydroisoquinoline-3-carboxylic acid] (HELM PEPTIDE1{[Cc1cc(O)cc(C)c1C[C@H](N)C(=O)[*:2]].[Tic]}$$$$V2.0)  13.1 nM
11. C=CCN(CC=C)[C@@H](Cc1ccc(O)cc1)C(=O)NC(C)(C)C(=O)NC(C)(C)C(=O)N[C@@H](Cc1ccccc1)C(=O)N[C@@H](CC(C)C)C(=O)O [NSC_107691] (HELM PEPTIDE1{[C=CCN(CC=C)[C@@H](Cc1ccc(O)cc1)C(=O)[*:2]].[Aib].[Aib].F.L}$$$$V2.0)  434 nM
